Experimental data from patent publication US20240083908A1, “TETRAHYDROTHIENOPYRIMIDINESULFONAMIDE COMPOUNDS” (priority 2020, published 2024).

Tests used:
human recombinant PARG = human recombinant PARG (Homo sapiens (Human), UniProt Q86W56); assay: PARG Activity Assay; assay type: biochemical; settings: recombinant human PARG 0.0185 nM, 1 hour pre-incubation, poly (ADP-ribose) substrate-coated plate, Abs 450
Description: In order to evaluate the PARG inhibitory activity of the present compound, the inhibitory activity of each test compound against human recombinant PARG was measured. The specific procedure is described below.
Test compound was dissolved in dimethyl sulfoxide and prepared a 10 mM stock solution.
PARG Activity Assay was performed in Streptavidin-coated 96-well plates. […] The substrate solution was added to the 96-well plate at the volume of 200 micro liter per well and incubated for 3 hours at room temperature. After the incubation, the substrate solution was discarded and assay plate was washed 4 times with 220 micro liter of PBS containing 0.1% Tween20 (PBST). […] The diluted enzyme solution was pre-incubated with compounds for 1 hour at room temperature in a 96-well plate and transferred 100 micro liter per well to the poly (ADP-ribose) substrate-coated assay plate. The plate was incubated for 1 hour at 25° C. and then washed 4 times with 220 micro liters of PBST. For the detection of non-digested poly (ADP-ribose) polymer on the plate, mouse anti-poly (ADP-ribose) antibody diluted with 0.2% BSA containing PBS was added 100 micro liters per well and incubated 1 hour at room temperature. Plate was washed 4 times with TBST and 100 micro liter of HRP-labeled anti-mouse Ig antibody was added to the wells. Plate was incubated for 30 minutes at room temperature and then washed 4 times with PBST. For the detection 100 micro liters of TMB substrate solution was added to the wells. After sufficient color development, reaction was stopped by addition of 50 micro liter of 0.2 M […]. The 450 nm absorbance (Abs 450) of each well was read with a micro plate reader. The assay was performed by duplicated and average of 2 independent assays were used for the determination of PARG inhibitor y activity.
Wells treated with dimethyl sulfoxide instead of test compound solution were designated as a Negative Control of assay
Wells treated with 0.2% BSA containing PBS instead of recombinant human PARG protein and with dimethyl sulfoxide instead of test compound solution were designated as a Positive Control of assay.
The PARG Inhibitory Activity (%) was determined by the following formulation.
PARG Inhibitory Activity (%)=[(AbsX−AbsA)/(AbsB−AbsA)]×100
(wherein, • AbsA is absorbance (Abs 450) of Negative Control wells • AbsB is absorbance (Abs 450) of Positive Control wells • AbsX is absorbance (Abs 450) of wells treated with test compound.)
In Table, Ex indicates an Example number shown below.

Kuramochi cells = assay: Synthetic Lethality Assay of Cancer Cell; assay type: cell-based; settings: Homo sapiens; growth inhibition of Kuramochi cells in the presence of methyl methanesulfonate (MMS), 96 hours, CellTiter-Glo
Description: In order to evaluate the cancer cell growth inhibitory effect of the present compound, the inhibitory effect of the compound on the growth of a human ovarian cancer cell line, Kuramochi cells, was examined in the presence of methyl methanesulfonate (MMS) which is used as a DNA methylating agent.
Test compound was dissolved in dimethyl sulfoxide and prepared a 10 mM compound solution. The compound solution was then further serially diluted with dimethyl sulfoxide to prepare a concentration of 400 times test compound solution from 6 mM to 1 μM.
Kuramochi cells were purchased from the JCRB cell bank and cultured at 37° C. in the presence of 5% of CO2 using the complete medium described above. […]
Cell viability after 96 hours was measured by using CellTiter-Glo (registered trademark) Luminescent Cell Viability Assay (manufactured by Promega Corporation) according to the recommended usage.
The luminescence intensity was measured by using a luminescence detection plate reader (Envision, manufactured by PerkinElmer Inc.). The cell viability of each well was calculated as a relative value (%) of the luminescence intensity of each well to which each test compound with each concentration was added in a case where the luminescence intensity of a well to which dimethyl sulfoxide was added instead of the test compound was defined as 100%. […]

Chain of human recombinant PARG (Q86W56 whole entry): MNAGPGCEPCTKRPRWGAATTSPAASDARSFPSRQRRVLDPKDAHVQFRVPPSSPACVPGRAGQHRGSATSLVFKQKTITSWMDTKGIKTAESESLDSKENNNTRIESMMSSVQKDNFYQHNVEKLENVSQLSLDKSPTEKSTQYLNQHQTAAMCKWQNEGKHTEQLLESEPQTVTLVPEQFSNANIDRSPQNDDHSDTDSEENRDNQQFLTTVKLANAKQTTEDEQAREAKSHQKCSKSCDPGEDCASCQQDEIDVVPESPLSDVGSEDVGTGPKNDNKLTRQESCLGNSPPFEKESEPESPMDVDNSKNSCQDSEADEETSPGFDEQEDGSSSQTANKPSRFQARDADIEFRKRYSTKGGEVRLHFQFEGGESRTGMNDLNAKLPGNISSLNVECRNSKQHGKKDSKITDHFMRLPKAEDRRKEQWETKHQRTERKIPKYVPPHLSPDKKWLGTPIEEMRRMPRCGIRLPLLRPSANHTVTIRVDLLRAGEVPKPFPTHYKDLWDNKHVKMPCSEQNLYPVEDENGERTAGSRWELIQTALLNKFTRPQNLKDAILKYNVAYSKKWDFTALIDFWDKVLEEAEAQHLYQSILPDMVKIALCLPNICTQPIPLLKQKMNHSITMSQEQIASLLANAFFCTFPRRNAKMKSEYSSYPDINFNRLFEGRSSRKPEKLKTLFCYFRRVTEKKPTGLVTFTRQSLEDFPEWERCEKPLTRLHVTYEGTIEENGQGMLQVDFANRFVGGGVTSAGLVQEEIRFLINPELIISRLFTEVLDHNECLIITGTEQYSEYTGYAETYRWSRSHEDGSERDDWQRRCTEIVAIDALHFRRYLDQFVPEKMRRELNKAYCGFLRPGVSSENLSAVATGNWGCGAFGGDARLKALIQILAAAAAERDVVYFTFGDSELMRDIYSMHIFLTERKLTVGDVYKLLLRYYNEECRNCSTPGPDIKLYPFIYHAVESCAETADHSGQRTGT

Row | Structure (SMILES) | IC50 (human recombinant PARG) | IC50 (Kuramochi cells)
1 | Cn1cc(Cn2c(=O)c3cc(S(=O)(=O)NC4(C)CC4)sc3n(Cc3ccc(N4CCCC4)nc3)c2=O)cn1 [Ex 82] | 97 nM | 
2 | Cn1cc(Cn2c(=O)c3cc(S(=O)(=O)NC4(C)CC4)sc3n(Cc3ccc(N4CC[C@H](O)C4)nc3)c2=O)cn1 [Ex 83] | 110 nM | 
3 | CO[C@H]1CCN(c2ccc(Cn3c(=O)n(Cc4cnn(C)c4)c(=O)c4cc(S(=O)(=O)NC5(C)CC5)sc43)cn2)C1 [Ex 84] | 200 nM | 
4 | Cn1cc(Cn2c(=O)c3cc(S(=O)(=O)NC4(C)CC4)sc3n(Cc3ccn(C)c(=O)c3)c2=O)cn1 [Ex 85] | 110 nM | 
5 | CC(=O)N1CCC(Cn2c(=O)n(Cc3cnn(C)c3)c(=O)c3cc(S(=O)(=O)NC4(C)CC4)sc32)CC1 [Ex 86] | 160 nM | 
6 | CN1CCC(Cn2c(=O)n(Cc3cnn(C)c3)c(=O)c3cc(S(=O)(=O)NC4(C)CC4)sc32)CC1=O (stereo not drawn) [Ex 87] | 220 nM | 
7 | Cn1cc(Cn2c(=O)c3cc(S(=O)(=O)NC4(C)CC4)sc3n(Cc3ccc(=O)n(C)c3)c2=O)cn1 [Ex 88] | 23 nM | 
8 | COCc1cc2cc(Cn3c(=O)n(Cc4cnn(C)c4)c(=O)c4cc(S(=O)(=O)NC5(C)CC5)sc43)ccc2[nH]1 [Ex 89] | 13 nM | 
9 | Cn1cc(Cn2c(=O)c3cc(S(=O)(=O)NC4(C)CC4)sc3n(Cc3ccc(N4CC(O)C4)nc3)c2=O)cn1 [Ex 90] | 17 nM | 
10 | CCC(=O)N1CCC(n2c(=O)n(Cc3cnn(C)c3)c(=O)c3cc(S(=O)(=O)NC4(C)CC4)sc32)CC1 [Ex 93] | 180 nM | 
11 | COCCC(=O)N1CCC(n2c(=O)n(Cc3cnn(C)c3)c(=O)c3cc(S(=O)(=O)NC4(C)CC4)sc32)CC1 [Ex 94] | 270 nM | 
12 | CNCCCC(=O)N1CCC(n2c(=O)n(Cc3cnn(C)c3)c(=O)c3cc(S(=O)(=O)NC4(C)CC4)sc32)CC1 [Ex 96] | 130 nM | 
13 | Cc1nc(C)c(Cn2c(=O)n(Cc3cnn(C)c3)c(=O)c3cc(S(=O)(=O)NC4(C#N)CC4)sc32)s1 [Ex 101] | 64 nM | 
14 | Cn1cc(Cn2c(=O)c3cc(S(=O)(=O)NC4(C#N)CC4)sc3n(Cc3ccc4oc(CO)cc4c3)c2=O)cn1 [Ex 102] | 75 nM | 
15 | Cn1cc(Cn2c(=O)c3cc(S(=O)(=O)NC4(C#N)CC4)sc3n(Cc3ccc(F)cc3)c2=O)cn1 [Ex 103] | 110 nM | 
16 | Cn1cc(Cn2c(=O)c3cc(S(=O)(=O)NC4(C)CC4)sc3n(Cc3ccc4c(n3)COC4)c2=O)cn1 [Ex 109] | 45 nM | 
17 | CC(c1ccc2c(c1)COC2)n1c(=O)n(Cc2cnn(C)c2)c(=O)c2cc(S(=O)(=O)NC3(C)CC3)sc21 (stereo not drawn) [Ex 112] | 140 nM | 
18 | Cc1cc2c(cc1Cn1c(=O)n(Cc3cnn(C)c3)c(=O)c3cc(S(=O)(=O)NC4(C)CC4)sc31)COC2 [Ex 113] | 94 nM | 
19 | Cc1cc(Cn2c(=O)n(Cc3cnn(C)c3)c(=O)c3cc(S(=O)(=O)NC4(C)CC4)sc32)cc2c1COC2 [Ex 114] | 34 nM | 
20 | Cc1c(Cn2c(=O)n(Cc3cnn(C)c3)c(=O)c3cc(S(=O)(=O)NC4(C)CC4)sc32)ccc2c1COC2 [Ex 115] | 68 nM | 

Row | Structure (SMILES) | IC50 (human recombinant PARG) | IC50 (Kuramochi cells)
21 | Cn1cc(Cn2c(=O)c3cc(S(=O)(=O)NC4(C)CC4)sc3n(Cc3ccc4[nH]c(CO)cc4c3)c2=O)cn1 [Ex 116] | 15 nM | 
22 | Cn1cc(Cn2c(=O)c3cc(S(=O)(=O)NC4(C)CC4)sc3n(Cc3cncc(CO)c3)c2=O)cn1 [Ex 117] | 41 nM | 
23 | CN1CCc2ccc(Cn3c(=O)n(Cc4cnn(C)c4)c(=O)c4cc(S(=O)(=O)NC5(C)CC5)sc43)cc2C1=O [Ex 118] | 120 nM | 
24 | Cn1cc(Cn2c(=O)c3cc(S(=O)(=O)NC4(C)CC4)sc3n(CC34CC(F)(C3)C4)c2=O)cn1 [Ex 119] | 240 nM | 
25 | Cn1cc(Cn2c(=O)c3cc(S(=O)(=O)NC4(C)CC4)sc3n(CCC3(C)COC3)c2=O)cn1 [Ex 120] | 120 nM | 
26 | Cn1cc(Cn2c(=O)c3cc(S(=O)(=O)NC4(C)CC4)sc3n(Cc3ccc(F)c(OCCO)c3)c2=O)cn1 [Ex 122] | 17 nM | 
27 | COc1c(F)cc(Cn2c(=O)n(Cc3cnn(C)c3)c(=O)c3cc(S(=O)(=O)NC4(C)CC4)sc32)cc1F [Ex 123] | 29 nM | 
28 | CNc1cc(Cn2c(=O)n(Cc3cnn(C)c3)c(=O)c3cc(S(=O)(=O)NC4(C)CC4)sc32)c(F)cc1F [Ex 124] | 73 nM | 
29 | CNc1c(F)cc(Cn2c(=O)n(Cc3cnn(C)c3)c(=O)c3cc(S(=O)(=O)NC4(C)CC4)sc32)cc1F [Ex 125] | 20 nM | 
30 | COC(=O)c1cc(Cn2c(=O)n(Cc3cnn(C)c3)c(=O)c3cc(S(=O)(=O)NC4(C)CC4)sc32)ccc1F [Ex 126] | 45 nM | 
31 | Cn1cc(Cn2c(=O)c3cc(S(=O)(=O)NC4(C)CC4)sc3n(Cc3ccc(F)c(C(=O)N4CCN(C(=O)C5CC5)CC4)c3)c2=O)cn1 [Ex 127] | 320 nM | 
32 | Cn1cc(Cn2c(=O)c3cc(S(=O)(=O)NC4(C)CC4)sc3n(Cc3ccc(Oc4ccc(F)cc4)nc3)c2=O)cn1 [Ex 128] | 130 nM | 
33 | Cn1cc(Cn2c(=O)c3cc(S(=O)(=O)NC4(C)CC4)sc3n(Cc3nc4c(s3)CCCC4)c2=O)cn1 [Ex 129] | 46 nM | 
34 | Cn1cc(Cn2c(=O)c3cc(S(=O)(=O)NC4(C)CC4)sc3n(Cc3ccc4c(c3)CC(=O)N4)c2=O)cn1 [Ex 130, 3-((1-Methyl-1H-pyrazol-4-yl)methyl)-N-(1-methylcyclopropyl)-2,4-dioxo-1-((2-oxoindolin-5-yl)methyl)-1,2,3,4-tetrahydrothieno[2,3-d]pyrimidine-6-sulfonamide] |  | 11700 nM
35 | Cn1cc(Cn2c(=O)c3cc(S(=O)(=O)NC4(C)CC4)sc3n(Cc3ccc4c(c3)NC(=O)C4)c2=O)cn1 [Ex 131] | 6.3 nM | 
36 | Cn1cc(Cn2c(=O)c3cc(S(=O)(=O)NC4(C)CC4)sc3n(CCc3ccccc3)c2=O)cn1 [Ex 132] | 660 nM | 
37 | COc1c(C)cnc(Cn2c(=O)n(Cc3cnn(C)c3)c(=O)c3cc(S(=O)(=O)NC4(C)CC4)sc32)c1C [Ex 133] | 1180 nM | 
38 | Cc1c[nH]c(Cn2c(=O)n(Cc3cnn(C)c3)c(=O)c3cc(S(=O)(=O)NC4(C)CC4)sc32)c(C)c1=O [Ex 134] | 6040 nM | 
39 | Cc1cc(Cn2c(=O)n(Cc3cnn(C)c3)c(=O)c3cc(S(=O)(=O)NC4(C)CC4)sc32)ccc1F [Ex 135] | 37 nM | 
